The values that follow come from US7294648B2, “Anthranyl derivatives having an anticholecystokinin activity (anti-cck-1), a process for their preparation, and pharmaceutical use thereof” (Rottapharm S.p.A., priority 2002, dated 2007).

One assay deals with T1, CCK-1 receptors (Rattus norvegicus, UniProt P30551).
T1 construct: The pancreatic acini obtained from the outbred male rat pancreas of the Sprague Dawley strain; from tissue; host or cells: isolated pancreatic acini of male Sprague Dawley rats
T1 sequence (P30551 1-444): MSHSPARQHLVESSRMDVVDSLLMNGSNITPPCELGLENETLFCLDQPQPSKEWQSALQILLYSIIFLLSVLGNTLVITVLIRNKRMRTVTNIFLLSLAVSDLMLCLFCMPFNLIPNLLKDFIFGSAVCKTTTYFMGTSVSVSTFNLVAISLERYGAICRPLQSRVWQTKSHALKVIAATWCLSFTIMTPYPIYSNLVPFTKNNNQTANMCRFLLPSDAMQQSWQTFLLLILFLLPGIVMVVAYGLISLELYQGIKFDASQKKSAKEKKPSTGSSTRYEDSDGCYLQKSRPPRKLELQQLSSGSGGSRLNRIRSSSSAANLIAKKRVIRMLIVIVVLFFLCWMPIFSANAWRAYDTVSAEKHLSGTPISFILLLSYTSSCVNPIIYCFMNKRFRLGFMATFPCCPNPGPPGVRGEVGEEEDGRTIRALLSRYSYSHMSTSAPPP
Description: Inhibition of binding of [125I]-BH-CCK-8 to isolated rat pancreatic acini. The conditions noted are these: for affinity for the CCK-1 receptors of the pancreatic acini of rat, in words: summary of Table 2. The protocol:
The pancreatic acini obtained from the outbred male rat pancreas of the Sprague Dawley strain, were incubated in the presence of radioactive tracers and the compound studied for 30 minutes at 37° C. After having discarded the supernatant, the radioactivity associated with the pellet was determined with a liquid scintillator. The specific binding was determined as the difference between the binding in the absence and in the presence of CCK-8, 1.10^−6M. […] The values of IC50 reported were calculated with the […] of a set of at least 3 experiences for each compound studied.

Assay [1] deals with T2, CCK-2 receptor (Cavia porcellus, UniProt H0VZC5).
T2 construct: The incubation of the cerebral membranes together with the radioactive tracers and the compounds under study; from tissue; host or cells: cerebral cortex membranes of male albino Hartley guinea pigs
T2 sequence (H0VZC5 1-426): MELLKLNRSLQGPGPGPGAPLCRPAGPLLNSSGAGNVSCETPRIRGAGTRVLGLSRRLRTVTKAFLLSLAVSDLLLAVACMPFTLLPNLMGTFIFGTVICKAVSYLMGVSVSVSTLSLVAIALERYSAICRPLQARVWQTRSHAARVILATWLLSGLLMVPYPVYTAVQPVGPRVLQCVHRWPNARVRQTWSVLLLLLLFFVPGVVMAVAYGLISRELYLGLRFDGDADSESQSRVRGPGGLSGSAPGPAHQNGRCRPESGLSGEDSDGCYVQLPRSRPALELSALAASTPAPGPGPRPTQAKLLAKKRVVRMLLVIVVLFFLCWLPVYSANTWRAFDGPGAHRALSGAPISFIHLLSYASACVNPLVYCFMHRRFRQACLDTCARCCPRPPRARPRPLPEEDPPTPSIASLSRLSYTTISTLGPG
Description: Inhibition of the binding of [125I]-BH-CCK-8 to the cortical membrane of guinea pigs. Details: species or system guinea pig. The conditions noted are these: 120 minutes at 25° C.; 25 pM marked binder; at least 3 tests. The protocol: (§1) For this purpose binding tests were performed on cerebral cortex of male albino guinea pigs outbred from the Hartley strain, using as marked binder the [^125I]-BH-CCK-8 sulphate, according to the procedure described by Makovec F. [J. Med. Chem. 35, (1992),28].
(§2) The incubation of the cerebral membranes together with the radioactive tracers and the compounds under study was effected on multi-well plates for 120 minutes at 25° C. Each well contained membrane corresponding to about 0.5 mg of proteins/ml and 25 pM of marked binder in a total volume of 250 micro litres. The specific binding was determined as the difference between the binding in the absence and in the presence of CCK-8, 1.10^−6M. At the end of the incubation a rapid filtration of the plate was performed under vacuum and the radioactivity of the individual filters extracted from the wells was measured with a γ-emission counter. The results obtained are shown in Table 3, in which the tested compounds are indicated, the IC50 calculated with the regression method on a set of at least 3 tests for each compound studied and an index derived from the ratio of the affinity obtained for the two types of receptor CCK-2 and CCK-1.

The test system of assay [2] is CCK-2 receptor. The assay is described as above. The conditions noted are these: IC50 CCK-2 (guinea pig cortex) / IC50 CCK-1 (rat pancreatic acini, Table 2). Further details: species or system guinea pig. How it is done: as §1, §2
In assay [3] the target is T3, CCK-1 (guinea pig gall bladder) (Cavia porcellus, UniProt Q63931).
T3 construct: A guinea pig gall bladder stimulated in vitro by CCK-8; from tissue; host or cells: isolated guinea pig gall bladder
T3 sequence (Q63931 1-430): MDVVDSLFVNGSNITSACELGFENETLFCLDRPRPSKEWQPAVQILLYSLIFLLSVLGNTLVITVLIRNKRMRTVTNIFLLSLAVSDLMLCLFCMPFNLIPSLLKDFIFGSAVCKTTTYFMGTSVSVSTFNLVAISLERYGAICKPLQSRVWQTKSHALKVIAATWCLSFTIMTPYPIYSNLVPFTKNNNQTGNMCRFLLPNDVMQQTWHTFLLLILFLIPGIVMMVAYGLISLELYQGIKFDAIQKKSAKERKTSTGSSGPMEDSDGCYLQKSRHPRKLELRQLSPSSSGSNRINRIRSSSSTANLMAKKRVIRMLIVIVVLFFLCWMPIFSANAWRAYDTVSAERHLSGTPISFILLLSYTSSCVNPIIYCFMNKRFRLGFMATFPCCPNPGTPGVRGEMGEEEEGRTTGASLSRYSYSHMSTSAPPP
Nature of the assay: Inhibition of the in vitro CCK-8 induced contraction of guinea pig gall bladder. In kind it is cell-based. Conditions: CCK-8 5 ng/ml; average of at least two experiments, 6-8 concentrations. An excerpt: A guinea pig gall bladder stimulated in vitro by CCK-8 according to the method described by Makovec et al. was used as an experimental model. [Arzneim. Forsch. Drug Res. 35 (7), 1048 (1985)]. The results thus obtained are illustrated in the following Table 4 in which the values of IC50 (moles/litre) are reported.

The mark [4] stands for this setting: 30 minutes at 37° C., at least 3 experiments, read-out: IC50, inhibition of binding of [125I]-BH-CCK-8 to isolated rat pancreatic acini.

Like-named read-outs stand apart in the source and are kept apart here.

Take `O=C(Nc1ccccc1C(=O)NC(Cc1ccccc1)C(=O)O)c1cc2cc(F)ccc2[nH]1` (stereo not drawn) [Compound 6]: the IC50 on CCK-1 receptors (setting [4]) was 60 nM; on CCK-2 receptor [1], 10600 nM. Further, in the assay with CCK-2 receptor [2], the “index derived from the ratio of the affinity obtained for the two types of receptor CCK-2 and CCK-1” value (“index derived from the ratio” below) worked out at 176.6.
Take `CCCCCCC(NC(=O)c1ccccc1NC(=O)c1cc2ccccc2[nH]1)C(=O)O` (stereo not drawn) [Compound 39]: the IC50 on CCK-1 receptors (setting [4]) was 20 nM; at CCK-2 receptor [1], more than 30000 nM. The “index derived from the ratio” value with CCK-2 receptor [2] was more than 1500.
For the compound `COc1ccccc1CCC(NC(=O)c1ccccc1NC(=O)c1cc2ccccc2[nH]1)C(=O)O` (stereo not drawn) [Compound 30], the IC50 at CCK-1 receptors (setting [4]) is 8 nM; on CCK-2 receptor [1] it was 3500 nM; in assay [3] it was 30 nM. Also, at CCK-1 receptors, the “affinity for the CCK-1 receptors of the pancreatic acini of rat, in words” value (from here on “affinity for the CCK-1 receptors”) is on record as “nanomolar level”. For the same compound, the “index derived from the ratio” value with CCK-2 receptor [2] stood at 437.5.
Regarding `CCC(CC)CC(NC(=O)c1ccccc1NC(=O)c1cc2ccccc2[nH]1)C(=O)O` (stereo not drawn) [Compound 46], the IC50 on CCK-1 receptors (setting [4]) came to 30 nM; on CCK-2 receptor [1], 2670 nM. The “index derived from the ratio” value in the assay on CCK-2 receptor [2] turned out to be 89.
With `COc1ccccc1CCC(NC(=O)c1ccccc1NC(=O)c1cc2cc(F)ccc2[nH]1)C(=O)O` (stereo not drawn) [Compound 32], the values for the IC50 at CCK-1 receptors (setting [4]) and on CCK-2 receptor [1] were 9 nM and 5680 nM, respectively. The “affinity for the CCK-1 receptors” value at CCK-1 receptors is listed as “nanomolar level”. In the assay with CCK-2 receptor [2], the “index derived from the ratio” value was 631.1.
In the case of `O=C(Nc1ccccc1C(=O)NC(CCc1ccccc1)C(=O)O)c1cc2cc(F)ccc2[nH]1` (stereo not drawn) [Compound 23], the IC50 on CCK-1 receptors (setting [4]) was determined as 7 nM; on CCK-2 receptor [1], 10800 nM; in assay [3], 15 nM. Also, the “affinity for the CCK-1 receptors” value at CCK-1 receptors is reported as “nanomolar level”. In the assay with CCK-2 receptor [2], the “index derived from the ratio” value is listed as 1542.9.
Take `CC(C)C(NC(=O)c1ccccc1NC(=O)c1cc2ccccc2[nH]1)C(=O)O` (stereo not drawn) [Compound 41]: the IC50 was determined as 200 nM at CCK-1 receptors (setting [4]) and 27400 nM on CCK-2 receptor [1]. In addition, the “index derived from the ratio” value in the assay on CCK-2 receptor [2] worked out at 137.
For `COc1cccc(CCC(NC(=O)c2ccccc2NC(=O)c2cc3ccccc3[nH]2)C(=O)O)c1` (stereo not drawn) [Compound 31], the half-maximal inhibitory concentration (IC50) on CCK-1 receptors (setting [4]) was 10 nM; on CCK-2 receptor [1] it was 3400 nM. Also, the “index derived from the ratio” value with CCK-2 receptor [2] was 340.
As to `CCCCCC(NC(=O)c1ccccc1NC(=O)c1cc2ccccc2[nH]1)C(=O)O` (stereo not drawn) [Compound 38], the IC50 on CCK-1 receptors (setting [4]) is 10 nM; on CCK-2 receptor [1], more than 30000 nM. In addition, the “index derived from the ratio” value in the assay on CCK-2 receptor [2] is listed as more than 3000.
Regarding `O=C(Nc1ccccc1C(=O)NC(CC1CCCCC1)C(=O)O)c1cc2ccccc2[nH]1` (stereo not drawn) [Compound 48], the IC50 at CCK-1 receptors (setting [4]) was determined as 20 nM; at CCK-2 receptor [1], 1220 nM. Further, the “index derived from the ratio” value with CCK-2 receptor [2] is given as 61.
Regarding `Cc1ccccc1CCC(NC(=O)c1ccccc1NC(=O)c1cc2ccccc2[nH]1)C(=O)O` (stereo not drawn) [Compound 25], the IC50 is 7 nM at CCK-1 receptors (setting [4]), more than 30000 nM on CCK-2 receptor [1] and 8 nM in assay [3]. The “affinity for the CCK-1 receptors” value on CCK-1 receptors is reported as “nanomolar level”. Further, the “index derived from the ratio” value with CCK-2 receptor [2] is more than 4286.
Taken in the same sequence, the figures for `Cc1ccccc1CCC(NC(=O)c1ccccc1NC(=O)c1cc2cc(F)ccc2[nH]1)C(=O)O` (stereo not drawn) [Compound 26] were 9 nM, 5150 nM, 43 nM, “nanomolar level” and 572.2.
Turning to `O=C(Nc1ccccc1C(=O)NC(CCc1ccccc1)C(=O)O)c1cc2ccccc2[nH]1` (stereo not drawn) [Compound 20], the IC50 on CCK-1 receptors was found to be 14 nM; at CCK-2 receptor [1], 2220 nM; in assay [3] it was 35 nM. Moreover, the “index derived from the ratio” value in the assay on CCK-2 receptor [2] was 158.6.
Take `O=C(Nc1ccccc1C(=O)N[C@H](CCc1ccccc1)C(=O)O)c1cc2ccccc2[nH]1` [Compound 21]: the figures for the IC50 (on CCK-1 receptors; at CCK-2 receptor [1]; in assay [3]) were 9 nM, 3800 nM and 20 nM, respectively. Also, the “affinity for the CCK-1 receptors” value at CCK-1 receptors is “nanomolar level”. In addition, the “index derived from the ratio” value with CCK-2 receptor [2] was found to be 422.2.

What is called IC50 is the midpoint of a concentration-inhibition curve.
